Data published in US20180318311A1, “TRICYCLIC 2-QUINOLINONES AS ANTIBACTERIALS” (priority 2017, published 2018).
Converted amounts (≈) assume the structure as drawn. Structures can show the parent of a compound that is named as a salt.

Legend:
Assay type in all cases: cell-based
[1] = system: S. aureus NB01080 fluoroquinolone-resistant clinical isolate; assay: MIC by broth microdilution, S. aureus NB01080; conditions: CAMHB, 35° C., 20 hours; for MIC: Staphylococcus aureus, read-out: Antibacterial activity (MIC) NB01080
Procedure, shortened: (§1)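 CAMHB, ~5×10^5 CFU/mL, 2-fold serial dilutions (final DMSO 1%), 35° C, ambient air, 20 h. Read OD600 plus visual check; MIC = lowest conc. with no visible growth, μg/mL.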

[2] = system: S. aureus ATCC 49951 (NB01006); assay: MIC by broth microdilution, S. aureus NB01006; conditions: 35° C., 20 hours; for MIC: Staphylococcus aureus, ATCC49951, CAMHB, read-out: Antibacterial activity (MIC) NB01006
Procedure, shortened: as §1

[3] = system: E. faecalis ATCC 29212 (NB04001); assay: MIC by broth microdilution, E. faecalis NB04001; conditions: 35° C., 20 hours; for MIC: Enterococcus faecalis, ATCC29212, CAMHB, read-out: Antibacterial activity (MIC) NB04001
Procedure, shortened: as §1

[4] = system: E. coli ATCC 25922 (NB27001); assay: MIC by broth microdilution, E. coli NB27001; conditions: 35° C., 20 hours; for MIC: Escherichia coli, ATCC25922, CAMHB, read-out: Antibacterial activity (MIC) NB27001
Procedure, shortened: as §1

[5] = system: S. pneumoniae ATCC 25922 (NB07001); assay: MIC by broth microdilution, S. pneumoniae NB07001; conditions: for MIC: Streptococcus pneumoniae, ATCC25922, 20 h, read-out: Antibacterial activity (MIC) NB07001
Procedure, shortened: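 CLSI broth microdilution in CAMHB, inoculum ~5×10^5 CFU/mL, two-fold compound dilutions at 1% final DMSO. Plates incubated 20 h at 35°C in ambient air; MIC (μg/mL) is the lowest concentration preventing visible growth, confirmed by OD600.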

[6] = system: S. aureus NB01006-AVR005, gyrA (S84L), grlA (580F) and grlB (E471K); assay: microbe, parasite or virus in culture; conditions: for MIC: Staphylococcus aureus, 20 h, read-out: Antibacterial activity (MIC) NB01006-AVR005
Procedure, shortened: as §1

[7] = system: P. aeruginosa NB52019, wild-type PAO1 strain; assay: MIC by broth microdilution, P. aeruginosa NB52019; conditions: CAMHB, 35° C., 20 hours; for MIC: Pseudomonas aeruginosa, read-out: Antibacterial activity (MIC) NB52019
Procedure, shortened: as §1

## C[C@H](N)[C@@H]1CCN(c2c(F)c(Cl)c3cc(C(=O)O)c(=O)n4c3c2OC[C@@H]4C)C1 [Example 19.2, (S)-10-((R)-3-((S)-1-aminoethyl)pyrrolidin-1-yl)-8-chloro-9-fluoro-3-methyl-5-oxo-2,3-dihydro-5H-[1,4]oxazino[2,3,4-ij]quinoline-6-carboxylic acid]
[1]
  MIC: < 1 µg/mL
[2]
  MIC: < 1 µg/mL
[3]
  MIC: < 1 µg/mL
[4]
  MIC: < 1 µg/mL
[5]
  MIC: < 1 µg/mL
[6]
  MIC: < 1 µg/mL
[7]
  MIC: 1 to 32 µg/mL (≈ 2.44 to 78.1 µM)

## C[C@H]1COc2c(N3CC[C@@H](C4(N)CC4)C3)cc(N)c3cc(C(=O)O)c(=O)n1c23 [Example 20, (S)-8-amino-10-((R)-3-(1-aminocyclopropyl)pyrrolidin-1-yl)-3-methyl-5-oxo-2,3-dihydro-5H-[1,4]oxazino[2,3,4-ij]quinoline-6-carboxylic acid]
[1]
  MIC: 1 to 32 µg/mL (≈ 2.6 to 83.2 µM)
[2]
  MIC: < 1 µg/mL
[3]
  MIC: 1 to 32 µg/mL (≈ 2.6 to 83.2 µM)
[4]
  MIC: 1 to 32 µg/mL (≈ 2.6 to 83.2 µM)
[5]
  MIC: < 1 µg/mL
[6]
  MIC: 1 to 32 µg/mL (≈ 2.6 to 83.2 µM)
[7]
  MIC: > 32 µg/mL

## C[C@H]1COc2c(N3CC[C@@H](C4(N)CC4)C3)c(F)c(C#N)c3cc(C(=O)O)c(=O)n1c23 [Example 21.1, (S)-10-((R)-3-(1-aminocyclopropyl)pyrrolidin-1-yl)-8-cyano-9-fluoro-3-methyl-5-oxo-2,3-dihydro-5H-[1,4]oxazino[2,3,4-ij]quinoline-6-carboxylic acid trifluoroacetate salt]
[1]
  MIC: < 1 µg/mL
[2]
  MIC: < 1 µg/mL
[3]
  MIC: < 1 µg/mL
[4]
  MIC: 1 to 32 µg/mL
[5]
  MIC: < 1 µg/mL
[6]
  MIC: < 1 µg/mL
[7]
  MIC: > 32 µg/mL

## C[C@H]1COc2c(N3CC[C@@H](C4(N)CC4)C3)cc(C#N)c3cc(C(=O)O)c(=O)n1c23 [Example 21.2, (S)-10-((R)-3-(1-aminocyclopropyl)pyrrolidin-1-yl)-8-cyano-3-methyl-5-oxo-2,3-dihydro-5H-[1,4]oxazino[2,3,4-ij]quinoline-6-carboxylic acid]
[1]
  MIC: 1 to 32 µg/mL (≈ 2.54 to 81.1 µM)
[2]
  MIC: < 1 µg/mL
[3]
  MIC: 1 to 32 µg/mL (≈ 2.54 to 81.1 µM)
[4]
  MIC: 1 to 32 µg/mL (≈ 2.54 to 81.1 µM)
[5]
  MIC: < 1 µg/mL
[6]
  MIC: 1 to 32 µg/mL (≈ 2.54 to 81.1 µM)
[7]
  MIC: > 32 µg/mL

## Cc1c(F)c(N2CC[C@@H](C3(N)CC3)C2)c2c3c1cc(C(=O)O)c(=O)n3[C@@H](C)CO2 [Example 22, (S)-10-((R)-3-(1-aminocyclopropyl)pyrrolidin-1-yl)-9-fluoro-3,8-dimethyl-5-oxo-2,3-dihydro-5H-[1,4]oxazino[2,3,4-ij]quinoline-6-carboxylic acid]
[1]
  MIC: < 1 µg/mL
[2]
  MIC: < 1 µg/mL
[3]
  MIC: < 1 µg/mL
[4]
  MIC: 1 to 32 µg/mL (≈ 2.49 to 79.7 µM)
[5]
  MIC: < 1 µg/mL
[6]
  MIC: 1 to 32 µg/mL (≈ 2.49 to 79.7 µM)
[7]
  MIC: > 32 µg/mL

## CCc1c(F)c(N2CC[C@@H](C3(N)CC3)C2)c2c3c1cc(C(=O)O)c(=O)n3[C@@H](C)CO2 [Example 23, (S)-10-((R)-3-(1-aminocyclopropyl)pyrrolidin-1-yl)-8-ethyl-9-fluoro-3-methyl-5-oxo-2,3-dihydro-5H-[1,4]oxazino[2,3,4-ij]quinoline-6-carboxylic acid]
[1]
  MIC: 1 to 32 µg/mL (≈ 2.41 to 77 µM)
[2]
  MIC: 1 to 32 µg/mL (≈ 2.41 to 77 µM)
[3]
  MIC: 1 to 32 µg/mL (≈ 2.41 to 77 µM)
[4]
  MIC: > 32 µg/mL
[5]
  MIC: 1 to 32 µg/mL (≈ 2.41 to 77 µM)
[6]
  MIC: > 32 µg/mL
[7]
  MIC: > 32 µg/mL

## COc1c(N2C[C@@H]3CCCN[C@@H]3C2)c(F)cc2c(=O)c(C(=O)O)cn(C3CC3)c12 [MOX, moxifloxacin, reference compound]
[1]
  MIC: > 32 µg/mL
[2]
  MIC: < 1 µg/mL
[3]
  MIC: < 1 µg/mL
[4]
  MIC: < 1 µg/mL
[5]
  MIC: < 1 µg/mL
[6]
  MIC: 1 to 32 µg/mL (≈ 2.49 to 79.7 µM)
[7]
  MIC: 1 to 32 µg/mL (≈ 2.49 to 79.7 µM)

## (S)-9-fluoro-3-methyl-10-((R)-3-(1-((2,2,2-trifluoroacetyl)-14-azanyl)cyclopropyl)pyrrolidin-1-yl)-2,3-dihydro-5H-[1,4]oxazino[2,3,4-ij]quinolin-5-one trifluoroacetate salt [Example 6.1]
[1]
  Antibacterial activity (MIC) NB01080: A (1 > A)
[2]; CAMHB
  Antibacterial activity (MIC) NB01006: A (1 > A)
[3]; CAMHB
  Antibacterial activity (MIC) NB04001: A (1 > A)
[4]; CAMHB
  Antibacterial activity (MIC) NB27001: B (32 > B ≥ 1)
[5]; S. pneumoniae, CAMHB supplemented with 5% lysed horse blood, 35° C., 20 hours
  Antibacterial activity (MIC) NB07001: A (1 > A)
[6]; ciprofloxacin-selected S. aureus mutant, CAMHB, 35° C., 20 hours
  Antibacterial activity (MIC) NB01006-AVR005: A (1 > A)
[7]
  Antibacterial activity (MIC) NB52019: C (C ≥ 32)
